Laboratory results as given in PubChem BioAssay (NCI).
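How tested: cells in 96-well plates exposed to compound for 48 hours at five concentrations. TGI is the concentration that stops growth completely.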

Tests used:
Assay in all cases: NCI tumour cell line growth inhibition, 48 h
[1] = tested on: 786-0 renal
[2] = tested on: A498 renal
[3] = tested on: A549 NSCLC
[4] = tested on: ACHN renal
[5] = tested on: BT-549 breast
[6] = tested on: CAKI-1 renal
[7] = tested on: CCRF-CEM leukemia
[8] = tested on: COLO 205 colon
[9] = tested on: DLD-1 colon
[10] = tested on: DMS 114 small cell lung
[11] = tested on: DMS 273 small cell lung
[12] = tested on: DU-145 prostate
[13] = tested on: EKVX NSCLC
[14] = tested on: HCC-2998 colon
[15] = tested on: HCT-116 colon
[16] = tested on: HCT-15 colon
[17] = tested on: HL-60(TB) leukemia
[18] = tested on: HOP-18 NSCLC
[19] = tested on: HOP-62 NSCLC
[20] = tested on: HOP-92 NSCLC
[21] = tested on: HS 578T breast
[22] = tested on: HT29 colon
[23] = tested on: IGROV1 ovarian
[24] = tested on: K-562 leukemia
[25] = tested on: KM12 colon
[26] = tested on: KM20L2 colon
[27] = tested on: LOX IMVI melanoma
[28] = tested on: LXFL 529 NSCLC
[29] = tested on: M14 melanoma
[30] = tested on: M19-MEL melanoma
[31] = tested on: MALME-3M melanoma
[32] = tested on: MCF7 breast
[33] = tested on: MDA-MB-231 breast
[34] = tested on: MDA-MB-435
[35] = tested on: MOLT-4 leukemia
[36] = tested on: NCI-H226 lung
[37] = tested on: NCI-H23 lung
[38] = tested on: NCI-H460 lung
[39] = tested on: NCI-H522 lung
[40] = tested on: NCI/ADR-RES ovarian
[41] = tested on: OVCAR-3 ovarian
[42] = tested on: OVCAR-5 ovarian
[43] = tested on: OVCAR-8 ovarian
[44] = tested on: PC-3 prostate
[45] = tested on: RPMI-8226 leukemia
[46] = tested on: RXF 393 renal
[47] = tested on: SF-268 CNS
[48] = tested on: SF-295 CNS
[49] = tested on: SF-539 CNS
[50] = tested on: SK-MEL-2 melanoma
[51] = tested on: SK-MEL-28 melanoma
[52] = tested on: SK-MEL-5 melanoma
[53] = tested on: SK-OV-3 ovarian
[54] = tested on: SN12C renal
[55] = tested on: SNB-19 CNS
[56] = tested on: SNB-75 CNS
[57] = tested on: SNB-78 CNS
[58] = tested on: SR leukemia
[59] = tested on: SW-620 colon
[60] = tested on: T-47D breast
[61] = tested on: TK-10 renal
[62] = tested on: U251 CNS
[63] = tested on: UACC-257 melanoma
[64] = tested on: UACC-62 melanoma
[65] = tested on: UO-31 renal
[66] = tested on: MDA-N
[67] = tested on: OVCAR-4 ovarian

SMILES: COc1cc2c(cc1OC)C(Cl)C(c1ccc(F)cc1)=C2Cl (stereo unspecified)
- TGI [1]: 24.8 µM
- TGI [2]: 29.9 µM
- TGI [3]: 32.8 µM
- TGI [4]: 26.1 µM
- TGI [5]: 15.6 µM
- TGI [6]: 29.1 µM
- TGI [7]: 29.1 µM
- TGI [8]: 31 µM
- TGI [9]: 32.9 µM
- TGI [10]: 28.5 µM
- TGI [11]: 31.9 µM
- TGI [12]: 37.5 µM
- TGI [13]: 40.7 µM
- TGI [14]: 28.5 µM
- TGI [15]: 25.6 µM
- TGI [16]: 28.4 µM
- TGI [17]: 24.2 µM
- TGI [18]: 30.5 µM
- TGI [19]: 30.1 µM
- TGI [20]: 22.6 µM
- TGI [21]: > 100 µM
- TGI [22]: 32.5 µM
- TGI [23]: 37.2 µM
- TGI [24]: 44.6 µM
- TGI [25]: 32.3 µM
- TGI [26]: 28 µM
- TGI [27]: 27.7 µM
- TGI [28]: 24 µM
- TGI [29]: 29.2 µM
- TGI [30]: 38.7 µM
- TGI [31]: 28.7 µM
- TGI [32]: 23.9 µM
- TGI [33]: 27 µM
- TGI [34]: 23.6 µM
- TGI [35]: 13.1 µM
- TGI [36]: 74 µM
- TGI [37]: 16.5 µM
- TGI [38]: 24.8 µM
- TGI [39]: 21.8 µM
- TGI [40]: 34.5 µM
- TGI [41]: 30.6 µM
- TGI [42]: 30.2 µM
- TGI [43]: 36.8 µM
- TGI [44]: 24.9 µM
- TGI [45]: 39.2 µM
- TGI [46]: 30.1 µM
- TGI [47]: 39.5 µM
- TGI [48]: 29 µM
- TGI [49]: 30.4 µM
- TGI [50]: 26.5 µM
- TGI [51]: 33.3 µM
- TGI [52]: 27.4 µM
- TGI [53]: 41.9 µM
- TGI [54]: 27 µM
- TGI [55]: 37.5 µM
- TGI [56]: 29.1 µM
- TGI [57]: 68.6 µM
- TGI [58]: 14.3 µM
- TGI [59]: 30.4 µM
- TGI [60]: 21.7 µM
- TGI [61]: 28.5 µM
- TGI [62]: 26.6 µM
- TGI [63]: 28.8 µM
- TGI [64]: 29.8 µM
- TGI [65]: 33.3 µM

SMILES: O=C1SC(SCc2ccccc2)=NC12CC2c1ccccc1 (stereo unspecified)
- TGI [1]: 39.2 µM
- TGI [2]: 65.1 µM
- TGI [3]: 81.8 µM
- TGI [4]: 38.2 µM
- TGI [5]: 52.8 µM
- TGI [6]: 40.5 µM
- TGI [7]: 11.1 µM
- TGI [8]: 61.3 µM
- TGI [12]: > 81 µM
- TGI [13]: 44 µM
- TGI [14]: 28.8 µM
- TGI [15]: 31.4 µM
- TGI [16]: 51.4 µM
- TGI [17]: 21.5 µM
- TGI [19]: > 82.8 µM
- TGI [20]: 53.1 µM
- TGI [21]: 68.4 µM
- TGI [22]: 54 µM
- TGI [23]: 52.6 µM
- TGI [24]: 55.3 µM
- TGI [25]: 33.2 µM
- TGI [27]: 38 µM
- TGI [29]: 37.8 µM
- TGI [31]: 34.8 µM
- TGI [32]: 40.1 µM
- TGI [33]: 43.5 µM
- TGI [34]: 59.3 µM
- TGI [66]: 49 µM
- TGI [35]: 10.3 µM
- TGI [36]: 52 µM
- TGI [37]: 42 µM
- TGI [38]: 41.4 µM
- TGI [39]: 33.5 µM
- TGI [40]: 63 µM
- TGI [41]: > 72.7 µM
- TGI [67]: 51.7 µM
- TGI [42]: 38.9 µM
- TGI [43]: 41.8 µM
- TGI [44]: > 66.8 µM
- TGI [45]: 48.3 µM
- TGI [46]: 37.2 µM
- TGI [47]: 70.1 µM
- TGI [48]: 44.8 µM
- TGI [49]: 37.7 µM
- TGI [50]: 40.1 µM
- TGI [51]: 41.5 µM
- TGI [52]: 34.1 µM
- TGI [53]: > 100 µM
- TGI [54]: 44.3 µM
- TGI [55]: 71.1 µM
- TGI [56]: 71.6 µM
- TGI [58]: 52.5 µM
- TGI [59]: 53.3 µM
- TGI [60]: > 100 µM
- TGI [61]: 81.1 µM
- TGI [62]: 39 µM
- TGI [63]: 38.5 µM
- TGI [64]: 32.8 µM
- TGI [65]: 41.2 µM

SMILES: Cc1nc(-c2nc(C)c(C(=O)NNC(=O)C[n+]3ccccc3)s2)sc1C(=O)NNC(=O)C[n+]1ccccc1
- TGI [1]: > 100 µM
- TGI [2]: > 100 µM
- TGI [3]: > 100 µM
- TGI [4]: > 100 µM
- TGI [6]: 85.1 µM
- TGI [7]: > 100 µM
- TGI [8]: > 100 µM
- TGI [9]: > 100 µM
- TGI [10]: > 100 µM
- TGI [13]: > 100 µM
- TGI [14]: > 100 µM
- TGI [15]: > 100 µM
- TGI [16]: > 100 µM
- TGI [17]: > 100 µM
- TGI [19]: > 100 µM
- TGI [20]: > 100 µM
- TGI [22]: > 100 µM
- TGI [23]: > 100 µM
- TGI [24]: > 100 µM
- TGI [25]: > 100 µM
- TGI [26]: > 100 µM
- TGI [27]: > 100 µM
- TGI [28]: > 100 µM
- TGI [29]: > 100 µM
- TGI [30]: > 100 µM
- TGI [31]: > 100 µM
- TGI [35]: > 100 µM
- TGI [36]: > 100 µM
- TGI [37]: > 100 µM
- TGI [38]: > 100 µM
- TGI [41]: > 100 µM
- TGI [42]: > 100 µM
- TGI [43]: > 100 µM
- TGI [45]: > 100 µM
- TGI [46]: > 100 µM
- TGI [47]: > 100 µM
- TGI [48]: > 100 µM
- TGI [49]: > 100 µM
- TGI [50]: > 100 µM
- TGI [51]: > 100 µM
- TGI [52]: > 100 µM
- TGI [53]: > 100 µM
- TGI [54]: > 100 µM
- TGI [55]: > 100 µM
- TGI [56]: 84.3 µM
- TGI [57]: > 100 µM
- TGI [59]: > 100 µM
- TGI [61]: > 100 µM
- TGI [62]: > 100 µM
- TGI [63]: > 100 µM
- TGI [64]: > 100 µM
- TGI [65]: 80.5 µM
